Measured values taken from ChEMBL document CHEMBL4393738, “Design of hybrid molecules as antimycobacterial compounds: Synthesis of isoniazid-naphthoquinone derivatives and their activity against susceptible and resistant strains of Mycobacterium tuberculosis” (Bioorg Med Chem, 2019).
Values after ≈ are worked out from the molar mass of the structure shown.

Tests used:
[1] = Selectivity index, ratio of IC50 for mouse J774.A1 cells to MIC for Mycobacterium tuberculosis INH R1 ATCC 35822; type: toxicity; details: read-out: Selectivity Index
J774.A1 = assay: Cytotoxicity against mouse J774.A1 cells measured after 24 hrs by resazurin based assay; type: cell-based; details: J774.A1, 24 h
[2] = Selectivity index, ratio of IC50 for mouse J774.A1 cells to MIC for Mycobacterium tuberculosis INH R2; type: toxicity; details: read-out: Selectivity Index
[3] = Selectivity index, ratio of IC50 for mouse J774.A1 cells to MIC for Mycobacterium tuberculosis H37Rv; type: toxicity; details: read-out: Selectivity Index

Compound: CC1(C)OC2=C(C(=O)/C(=N\NC(=O)c3ccncc3)c3ccccc32)C1n1cc(-c2ccccc2)nn1 (stereo not given)
- selectivity ratio [1]: 8.1
- IC50 (J774.A1): 101 µg/mL (≈ 207 µM)
- selectivity ratio [2]: 8.1
- selectivity ratio [3]: 8.1

Compound: O=C1C2=C(OC(Cn3cc(-c4ccccc4)nn3)C2)c2ccccc2/C1=N/NC(=O)c1ccncc1 (stereo not given)
- selectivity ratio [1]: 0.4
- IC50 (J774.A1): 18.4 µg/mL (≈ 38.6 µM)
- selectivity ratio [2]: 0.4
- selectivity ratio [3]: 1.5

Compound: CC1(C)OC2=C(C(=O)/C(=N\NC(=O)c3ccncc3)c3ccccc32)C1O (stereo not given)
- selectivity ratio [1]: > 1
- IC50 (J774.A1): > 200 µg/mL
- selectivity ratio [2]: > 2
- selectivity ratio [3]: > 32

Compound: CC1(C)CCC2=C(O1)c1ccccc1C(=O)C2=O [LAPACHONE]
- selectivity ratio [1]: > 64
- IC50 (J774.A1): > 200 µg/mL
- selectivity ratio [2]: > 32
- selectivity ratio [3]: > 32

Compound: CC1CC2=C(O1)c1ccccc1/C(=N/NC(=O)c1ccncc1)C2=O (stereo not given)
- selectivity ratio [1]: > 16
- IC50 (J774.A1): > 200 µg/mL
- selectivity ratio [2]: > 8
- selectivity ratio [3]: > 16

Compound: CC1(C)CCC2=C(O1)C(=O)c1ccccc1C2=O [ALPHA-LAPACHONE]
- IC50 (J774.A1): 285 µg/mL (≈ 1180 µM)

Compound: CC1(C)OC2=C(C(=O)C(=O)c3ccccc32)C1n1cc(-c2ccccc2)nn1 (stereo not given)
- selectivity ratio [1]: 0.1
- IC50 (J774.A1): 2.11 µg/mL (≈ 5.68 µM)
- selectivity ratio [2]: 0.1
- selectivity ratio [3]: 0.3

Compound: CC1(C)OC2=C(C(=O)/C(=N\NC(=O)c3ccncc3)c3ccccc32)[C@H](n2cc(-c3ccccc3)nn2)[C@H]1Br
- selectivity ratio [1]: 0.9
- IC50 (J774.A1): 175 µg/mL (≈ 300 µM)
- selectivity ratio [2]: < 0.9
- selectivity ratio [3]: 0.9

Compound: CC1(C)OC2=C(CC1I)C(=O)C(=O)c1ccccc12 (stereo not given)
- selectivity ratio [1]: 1
- IC50 (J774.A1): 3.2 µg/mL (≈ 8.69 µM)
- selectivity ratio [2]: 0.5
- selectivity ratio [3]: 1

Compound: CC1(C)OC2=C(C(=O)/C(=N\NC(=O)c3ccncc3)c3ccccc32)C1Nc1ccccc1 (stereo not given)
- selectivity ratio [1]: 0.7
- IC50 (J774.A1): 74.2 µg/mL (≈ 169 µM)
- selectivity ratio [2]: 3
- selectivity ratio [3]: 3

Compound: CC1(C)OC2=C(CC1Br)C(=O)C(=O)c1ccccc12 (stereo not given)
- selectivity ratio [1]: 0.3
- IC50 (J774.A1): 1.93 µg/mL (≈ 6.01 µM)
- selectivity ratio [2]: 0.6
- selectivity ratio [3]: 0.3

Compound: CC1(C)OC2=C(CC1Br)C(=O)/C(=N\NC(=O)c1ccncc1)c1ccccc12 (stereo not given)
- selectivity ratio [1]: > 16
- IC50 (J774.A1): > 200 µg/mL
- selectivity ratio [2]: > 16
- selectivity ratio [3]: > 16

Compound: CC1(C)CC2=C(O1)/C(=N\NC(=O)c1ccncc1)c1ccccc1C2=O
- selectivity ratio [1]: 0.2
- IC50 (J774.A1): 17 µg/mL (≈ 48.9 µM)
- selectivity ratio [2]: 0.1
- selectivity ratio [3]: 0.7

Compound: CC1(C)OC2=C(C(=O)C(=O)c3ccccc32)C1Nc1ccccc1 (stereo not given)
- selectivity ratio [1]: 0.6
- IC50 (J774.A1): 1.82 µg/mL (≈ 5.7 µM)
- selectivity ratio [2]: 0.3
- selectivity ratio [3]: 0.6

Compound: CC1(C)OC2=C(C(=O)C(=O)c3ccccc32)[C@H](n2cc(-c3ccccc3)nn2)[C@H]1Br (racemic)
- selectivity ratio [1]: 0.2
- IC50 (J774.A1): 1.47 µg/mL (≈ 3.17 µM)
- selectivity ratio [2]: 0.1
- selectivity ratio [3]: 0.9

Compound: CC1(C)CC2=C(O1)c1ccccc1/C(=N/NC(=O)c1ccncc1)C2=O
- selectivity ratio [1]: > 4
- IC50 (J774.A1): > 200 µg/mL
- selectivity ratio [2]: > 32
- selectivity ratio [3]: > 250

Compound: CC1(C)OC2=C(C(=O)C(=O)c3ccccc32)C1O (stereo not given)
- selectivity ratio [1]: 0.1
- IC50 (J774.A1): 3.67 µg/mL (≈ 15 µM)
- selectivity ratio [2]: 0.1
- selectivity ratio [3]: 0.3

Compound: CC1(C)CC2=C(O1)c1ccccc1C(=O)C2=O [NOR-BETA-LAPACHONE]
- selectivity ratio [1]: 0.3
- IC50 (J774.A1): 3.69 µg/mL (≈ 16.2 µM)
- selectivity ratio [2]: 0.6
- selectivity ratio [3]: 1.2

Compound: CC1(C)CCC2=C(O1)c1ccccc1/C(=N/NC(=O)c1ccncc1)C2=O
- selectivity ratio [1]: > 4
- IC50 (J774.A1): > 200 µg/mL
- selectivity ratio [2]: > 32
- selectivity ratio [3]: > 250

Compound: CC1(C)OC2=C(CC1I)C(=O)/C(=N\NC(=O)c1ccncc1)c1ccccc12 (stereo not given)
- selectivity ratio [1]: 0.3
- IC50 (J774.A1): 30.8 µg/mL (≈ 63.1 µM)
- selectivity ratio [2]: 0.3
- selectivity ratio [3]: 0.3

Compound: O=C1C(=O)c2ccccc2C2=C1CC(Cn1cc(-c3ccccc3)nn1)O2 (stereo not given)
- selectivity ratio [1]: 0.1
- IC50 (J774.A1): 2.94 µg/mL (≈ 8.23 µM)
- selectivity ratio [2]: 0.1
- selectivity ratio [3]: 0.2

Compound: CC1(C)CC2=C(O1)C(=O)c1ccccc1C2=O
- selectivity ratio [1]: 0.7
- IC50 (J774.A1): 18.6 µg/mL (≈ 81.6 µM)
- selectivity ratio [2]: 0.7
- selectivity ratio [3]: 1.5
